# Assay results reported in US20210130790A1, “Infected Cell Cultures” (Merck Patent GmbH, priority 2017, published 2021).
# System: Pb-Luc (Plasmodium berghei constitutively expressing luciferase) sporozoite infection of HC-04 3D cultures
# Assay: Drug activity on Pb-Luc sporozoite infection of HC-04 3D cultures (spheroids), luciferase readout
# Type: cell-based
# Method: FIG. 19—Analysis of drug activity in Pb infected-HC-04 spheroids. Dose-response curve of 3D cultures treated with ATQ. Results are expressed as percentage of infection normalized to the non-treated control. Results are represented as the mean of up to two independent experiments.
# Initially, a preliminary assay employing reporter lines of Plasmodium berghei, constitutively expressing luciferase (Pb-Luc) or GFP (Pb-GFP), was performed to optimize the range of cell-to-sporozoite ratios and mode of contact. Pb-Luc parasites enable measuring infection by luminescence readings of cell lysates following addition of the luciferin substrate. Pb-GFP parasites enable measuring infection flow cytometry analysis. Such analyses allow measuring the percentage of invaded cells (% GFP-positive cells) and the development of the parasite inside the hepatic cells (GFP intensity). […]
# HC-04 3D cultures were infected with Pb-Luc in the optimized conditions described above (cell density of 2.5×10^4 cell/well in a 1:2 ratio). The assessment of drug effect in the infection was performed by incubating the drug at a range of concentrations from 0.01 to 100 nM for 1 hour before incubation with the sporozoites and the readout was performed 48 hours after sporozoites addition, described as incubation regimen (A) in the detailed description of the invention section (FIG. 1). […]
smiles,measurement,setting,value
"O=C1C(O)=C([C@H]2CC[C@H](c3ccc(Cl)cc3)CC2)C(=O)c2ccccc21 [ATQ, Atovaquone]",IC50,"Plasmodium berghei, HC04, 2.5×10^4 cell/well, 1:2 cell-to-sporozoite ratio, drug added 1 hour before sporozoites, readout 48 hours after sporozoite addition (regimen A), read-out: half inhibitory concentration (IC50) for sporozoite infection",0.6 nM
same,decrease of infection,"highest concentrations tested (range 0.01 to 100 nM), readout 48 hours, normalized to non-treated control",more than 90%
